Test results from patent US20140162974A1, “METHODS FOR MODULATION OF PHOSPHORUS AND FGF23” (Luitpold Pharmaceuticals, Inc., priority 2012, published 2014).

Experiments:
Phosphorus = experiment: VIT-23 study: phosphorus at study visits; format: in vivo, human
Method: Subjects with a hemoglobin (Hgb) that meets inclusion requirements and no exclusionary criteria will be offered participation in this 5-6 week study.
During the Treatment Phase, all subjects received a maximum dose of 1000 mg of IV iron. […] If no reaction occurred, the remainder of the dose (up to 15 mg/kg or 1000 mg including the test dose) was given as per Investigator. The infusion was given only when resuscitative techniques for the treatment of anaphylactic and anaphylactoid reactions were readily available.
Primary Endpoints included changes in blood and urine markers of phosphate and bone metabolism following IV iron administration. Blood markers include (all performed in morning after 10 hr fast): Serum Phosphate; Serum Potassium; Plasma Fibroblast growth factor 23 via 2nd generation Immutopics C-terminal assay; Serum Vitamin D; 1, 25 dihydroxy Vitamin D (1,25 [OH]2D); 25 hydroxy Vitamin D (250H-D); Serum Osteocalcin; Serum Bone-specific Alkaline phosphatase; Plasma intact Parathyroid hormone; Serum creatinine; Hepcidin; Reticulocyte count; Hemoglobin; Ferritin; Transferrin Saturation (TSAT); and Sample for archive. Urine markers (collected over a 3 hour period in the morning) (ratio of phosphate to creatinine determined to offset inter-patient variability in urine concentration) include: Phosphate; Creatinine; Calcium; Amino acids; Glucose; Albumin; Deoxypyridinoline cross link (Dpd)—a collagen type I cross link that indicates bone resorption; Beta-2-microglobulin; and Sample for archive.
All subjects had laboratory assessments at Screening, Day 0, Day 1 (24 hrs), Day 7, Day 14, and Day 35. Any subject with a change in phosphate value after Day 0 had additional phosphate measurements at 14 day intervals (following Day 35) until the level returned to normal (as defined by the laboratory reference range). Safety evaluation for all subjects included adverse events, physical examination, including vital signs, and laboratory assessments. Three hour urine collections was also performed on Day 0, Day 1 (24 hrs), Day 7, Day 14, and Day 35. Any subject who withdrew from the study will receive a follow up phone call 30 days after they received study drug.
The “baseline” was the value at Day 0 prior to administration of any study drug. The value of “n” for the baseline measurement may have be different at each study visit because the baseline values were assessed only for those individuals with data at the given visit.

[1] = test system: hemoglobin, ferritin, TSAT, hepcidin; experiment: Example 3 trial: erythropoiesis and iron parameters; format: in vivo, human; parameters: Mean increase in ferritin from baseline to highest value: unit not given here; settings: for Mean increase in hepcidin from baseline to highest value / effect of a single dose on hemoglobin and iron indices / proportion of group in which hemoglobin increased by 2.0 g/dL: in vivo; for Hemoglobin increase ≧2.0 g/dL, n (%): intention-to-treat in safety population, anytime to day 35; for Mean increase in ferritin from baseline to highest value / Mean increase in hemoglobin from baseline to highest value / Mean increase in transferrin saturation from baseline to highest value: mean ± standard error; for effect on TSAT and serum hepcidin levels: p≦0.001; for serum hepcidin levels by day 7: remained significantly elevated on day 35
Method: Study visits were on Days 0 (when iron was infused), 1 (24 hours after iron infusion), 7, 14, and 35. The primary objectives were to determine the effect of iron deficiency on cFGF23 and iFGF23 levels and the effect of intravenous iron on iFGF23 and cFGF23 levels.
Randomization occurred centrally via a fax-based system. […] The complete dose was infused over 15 minutes on day 0. […] An initial test dose of 25 mg was administered slowly over 5 minutes.
Laboratory testing of blood and three-hour urine collections was performed at the screening visit and on study days 0 (when iron was infused), 1 (24 hours after iron infusion), 7, 14, and 35 (see e.g., FIG. 2A). Any subject who experienced a reduction in serum phosphate below the normal range after day 0 underwent additional phosphate measurements at 14 day intervals following day 35 until the level returned to the normal reference range. Safety evaluations of all subjects included ascertainment of adverse events, physical examinations at all study visits, and laboratory assessments. Any subject who withdrew from the study received a follow-up phone call to ascertain adverse events 30 days after they received study drug.
The pre-specified primary endpoints were changes in blood and urine markers of phosphate and bone metabolism among the evaluable population, defined as those subjects with baseline and at least one post-randomization set of FGF23 and blood and urinary phosphate levels. Secondary endpoints included the proportion of subjects achieving a hemoglobin increase […] anytime between baseline and day 35, and the change from baseline to highest hemoglobin, ferritin, and TSAT anytime during the 35-day study period. Additional safety endpoints included incidence, severity, and seriousness of adverse events, and incidence of treatment-emergent abnormal clinical laboratory values in the safety population, defined as all subjects who received the study drug regardless of subsequent laboratory testing.
Blood and urine samples were sent to a central laboratory for analysis (Covance Central Laboratory Service, Indianapolis, Ind.). Hemoglobin, blood counts, iron indices, electrolytes, and serum and urinary phosphate and creatinine were measured with standard, automated, multi-analyte techniques. Urinary fractional excretion of phosphate (FEPi) was calculated from the three-hour, morning urine collections as urinary phosphate x serum creatinine/serum phosphate x urinary creatinine. Serum levels of 25-hydroxyvitamin D and 1,25-dihydroxyvitamin D were measured in duplicate by radioimmunoassay (DiaSorin, Stillwater, Minn.) with intra-assay coefficients of variation (CV)<11.6%. Plasma C-terminal FGF23 (cFGF23) was measured in duplicate in EDTA-plasma samples using a human FGF23 immunometric assay capable of detecting both the intact peptide and its C-terminal fragments (Immutopics, San Clemente, Ca) with intra-assay CV≦3.8%. Because cFGF23 testing was performed in parallel with rolling enrollment and follow-up, all cFGF23 assay plates tested combinations of baseline and post-intervention samples from multiple study participants. Serum intact FGF23 (iFGF23) was measured in batches of baseline and post-intervention samples from multiple study participants at study end using an immunometric assay that detects the intact peptide exclusively (Kyowa Medex Company, Shizuoka, Japan) with intra-assay CV<2.7%. Serum hepcidin levels were measured on days 0, 7, and 35 using an enzyme-linked immunosorbent assay (Intrinsic LifeSciences, La Jolla, Calif.) with intra-assay CV≦19%. Urinary amino acids, glucose, albumin, and beta 2 microglobulin were measured to test for the possibility of global proximal tubular dysfunction. Urinary deoxypyridinoline cross link, and serum osteocalcin and bone-specific alkaline phosphatase were measured to assess bone turnover. […]

[2] = Day 7 after single IV dose up to 1000 mg iron
[3] = Day 14 after single IV dose up to 1000 mg iron
[4] = Day 35 after single IV dose up to 1000 mg iron

Substance | Phosphorus, Visit, Mean (Phosphorus; [2]) [mg/dL] | Phosphorus, Change to Visit, Max (Phosphorus; Day 7 vs baseline) [mg/dL] | Phosphorus, Change to Visit, Mean (Phosphorus; Day 7 vs baseline) [mg/dL] | Phosphorus, Change to Visit, Median (Phosphorus; Day 7 vs baseline) [mg/dL] | Phosphorus, Change to Visit, Min (Phosphorus; Day 7 vs baseline) [mg/dL] | Phosphorus, Visit, Mean (Phosphorus; [3]) [mg/dL] | Phosphorus, Change to Visit, Max (Phosphorus; Day 14 vs baseline) [mg/dL] | Phosphorus, Change to Visit, Mean (Phosphorus; Day 14 vs baseline) [mg/dL] | Phosphorus, Change to Visit, Median (Phosphorus; Day 14 vs baseline) [mg/dL] | Phosphorus, Change to Visit, Min (Phosphorus; Day 14 vs baseline) [mg/dL] | Phosphorus, Visit, Mean (Phosphorus; [4]) [mg/dL] | Phosphorus, Change to Visit, Max (Phosphorus; Day 35 vs baseline) [mg/dL] | Phosphorus, Change to Visit, Mean (Phosphorus; Day 35 vs baseline) [mg/dL] | Phosphorus, Change to Visit, Median (Phosphorus; Day 35 vs baseline) [mg/dL] | Phosphorus, Change to Visit, Min (Phosphorus; Day 35 vs baseline) [mg/dL] | Mean increase in hepcidin from baseline to highest value [1] [ng/mL] | effect of a single dose on hemoglobin and iron indices [1] | proportion of group in which hemoglobin increased by 2.0 g/dL [1] [%] | Hemoglobin increase ≧2.0 g/dL, n (%) [1] | Mean increase in ferritin from baseline to highest value [1] | other results
iron dextran [reference compound] | 3.55 | 1.2 | -0.07 | -0.1 | -0.9 | 3.58 | 1.4 | -0.06 | 0.1 | -1.5 | 3.55 | 1.3 | -0.08 | -0.1 | -1.3 | 77.8 | significantly increase | 53 | 16 (53) n (%) | 189 ± 21 | Mean increase in hemoglobin from baseline to highest value [1]: 2.2 ± 0.2 g/dL; Mean increase in transferrin saturation from baseline to highest value [1]: 44 ± 3.0%; effect on TSAT and serum hepcidin levels [1]: increased TSAT and serum hepcidin levels significantly; serum hepcidin levels by day 7 [1]: significantly increased
polynuclear iron (III)-hydroxide 4(R)-(poly-(1→4)-O-α-glucopyranosyl)-oxy-2(R),3(S),5(R),6-tetrahydroxy-hexanoate [FCM] | 2.51 | 0.7 | -0.87 | -0.8 | -2.3 | 3.42 | 0.7 | -0.92 | -0.7 | -3.5 | 3.92 | 1.0 | -0.38 | -0.2 | -1.9 | 33.4 | significantly increase | 60 | 15 (60) n (%) | 306 ± 41 | absolute difference in proportion with hemoglobin increase, FCM vs iron dextran ([1]; 95% CI −23.2, 36.6%, p=0.79): 6.7%; Mean increase in hemoglobin from baseline to highest value [1]: 2.0 ± 0.3 g/dL; Mean increase in transferrin saturation from baseline to highest value [1]: 68 ± 6.4%; effect on TSAT and serum hepcidin levels [1]: increased TSAT and serum hepcidin levels significantly; serum hepcidin levels by day 7 [1]: significantly increased; increase in serum ferritin by day 7 compared to iron dextran ([1]; thereafter levels similar): greater increase
